Source: publication PMC12561453, “Synthesis and Structure–Activity Relationship Study of 2-(amino)quinazolin-4(3H)-one Derivatives as Potential Inhibitors of Methicillin-Resistant Staphylococcus aureus (MRSA)” (Antibiotics, 2025)
In brackets after ≈: the same amount, converted by molar mass. Read-outs that look alike come from different tables or passages of the source.

How the values were obtained:
[1] = system: S. aureus ATCC25923; assay: Broth microdilution dose-response, S. aureus ATCC25923; type: cell-based, Staphylococcus aureus
From the text: (§1) The antistaphylococcal activities (MIC50) of the synthesized compounds were examined via a previously described broth microdilution method against two S. aureus strains: ATCC25923, a methicillin-sensitive reference strain, and JE2, a methicillin-resistant strain of the USA300 lineage (Figure 2, Table 1).
(§2) Staphylococcus aureus USA300, a methicillin-resistant strain, was obtained from the Nebraska Transposon Mutant Library. Staphylococcus aureus ATCC25923, a pan-drug-susceptible strain, was purchased from the American Type Culture Collection (ATCC) (Manassas, VA, USA). S. aureus strains were grown in Cation-Adjusted Mueller–Hinton broth (CAMHB) (Difco) at 37 °C. Bacterial strain stocks were stored in vials with 25% glycerol at −80 °C. For each experiment, overnight cultures were prepared by inoculating a frozen bacterial strain stock in 10 mL of CAMHB medium and incubating at 37 °C in a shaking incubator (180 rpm). For the preliminary screen and dose–response experiments, 100 µL of overnight culture was inoculated into 10 mL of fresh CAMHB and incubated for 3 h at 37 °C and 180 rpm.
(§3) Antibiotic susceptibility assay was tested according to modified Clinical and Laboratory Standards Institute (CLSI) laboratory guidelines for broth microdilution assays. S. aureus was cultured in CAMHB, and bacterial cells were prepared with an OD600 of 0.005. DRC plates were prepared by adding 40 µL of bacterial suspension to each well, where 10 µL of each compound had been dispensed for […] of two-fold serial dilutions starting at […]. After incubation of the plates at 37 °C for 18–24 h with 5% CO2, the growth of S. aureus was detected by measuring the OD600nm using an Ensight (Revvity) spectrometer (Revvity, Waltham, MA, USA).
(§4) Figure 2 In vitro antibacterial activities of 2-(amino)quinazolin-4(3H)-one derivatives. S. aureus ATCC25923 (blue) and USA300 JE (orange) strains were incubated with serial dilutions of 2-(amino)quinazolin-4(3H)-one derivatives (0.19–100 µM) for 18–24 h. The dose–responses were observed by measuring OD600nm. The plots were drawn from each group of strains with nonlinear curve fits.

[2] = system: S. aureus USA300 JE2; assay: Broth microdilution dose-response, S. aureus USA300 JE2 (MRSA); type: cell-based, Staphylococcus aureus; conditions: for fold better antibacterial activity against JE2 compared to compound 1: JE2, versus compound 1
From the text: as §1, §2, §3, §4

[3] = system: HepG2 cells; assay: In vitro cytotoxicity, HepG2 viability (resazurin); type: cell-based, human; conditions: Homo sapiens, HepG2, 24 h, read-out: HepG2 IC50
Method: The in vitro cytotoxicity of the compounds was evaluated by measuring the viability of HepG2 cells, a human liver cell line, following treatment in a dose–response manner, as previously described. […] The efficacy window was calculated as the ratio of IC50 in HepG2 cells to MIC50 against JE2.
To test cytotoxicity with compounds, the human liver cell line HepG2 (ATCC #HB-8065) was used for the assay. HepG2 was cultured in DMEM with 10% fetal bovine serum (FBS) in a 96-well microplate at 37 °C and 5% CO2. HepG2 cells were seeded at a final density of 5 × 10^4 cells/well, and DMEM-containing diluted compounds were added and incubated on the plates at 37 °C in 5% CO2 for 24 h. After that, resazurin (final concentration, 0.1 mg/mL) was added to each well and incubated on the plates at 37 °C in 5% CO2 for 2 h. To detect the fluorescence at 530 nm excitation and 590 nm emission, an Ensight multimode plate reader was used (Revvity, Waltham, MA, USA).

[4] = system: S. aureus USA300 JE2 expressing GFP in H460 cells; assay: microbe, parasite or virus in culture; type: cell-based, Staphylococcus aureus; conditions: for MIC50: Staphylococcus aureus, USA300, 24 h, read-out: H460 Assay MIC50 (MIC50 ex vivo)
From the text: Staphylococcus aureus, including MRSA, can invade host cells and replicate intracellularly, which complicates treatment with current therapies. To evaluate the intracellular antibacterial activities of the selected compounds, the fifteen compounds tested for cytotoxicity were further assessed using a cell infection model based on H460 human lung epithelial cells, which mimic MRSA-mediated pneumonia. H460 cells were infected with the USA300 JE2 expressing green fluorescent protein (GFP) and subsequently treated with the compounds in a dose–response manner, along with three reference antibiotics: vancomycin, linezolid, and erythromycin. After 24 h of incubation, bacterial loads were quantified by measuring GFP fluorescence in each well. MIC50 values determined in the H460 infection model (MIC50 ex vivo) were generally higher than those obtained from the in vitro tests, likely due to either limited compound penetration into host cells or reduced antibacterial effect of the compounds against intracellular bacteria (Figure 3, Table 2). […] These findings underscore the potential of compound 6y as a promising lead for further development as a novel antistaphylococcal agent.
To see the ex vivo antimicrobial activity of the compound, the human lung carcinoma cell line H460 (ATCC #HTB-177) was used. The H460 cells were cultured in RPMI 1640 medium with 10% fetal bovine serum (FBS) and in a 96-well microplate at 37 °C and 5% CO2. Cell lines were cultured for 2 days, until they reached full confluence in the well. S. aureus (USA300-containing and pCM29-encoding GFP) was cultured in CAMHB with 10 µg/mL of chloramphenicol, and bacterial cells were harvested. After washing the bacterial cells with phosphate-buffered saline (PBS) and suspending them in RPMI, infected H460 cells with S. aureus (1 × 10^7 CFU) and incubated them for 2.5 h. Samples were washed three times with PBS. Then, cells were treated with gentamicin (50 µg/mL of gentamicin in RPMI) and incubated for 1 h. Samples were washed with PBS, RPMI-containing diluted compounds were added, and then they were incubated at 37 °C in 5% CO2 for 24 h. To detect the Green fluorescent protein (GFP) signal, an Ensight multimode plate reader and Opera Phenix Plus (Revvity, Waltham, MA, USA) were used.
Ex vivo infection model images were generated using the Opera Phenix Plus high-content imaging system. Images were obtained by a confocal microscope with a 20× water objective lens. To detect the bacteria fluorescence signal (GFP), the Alexa 488 channel (488 nm laser/500–550 filter, Thermo Fisher Scientific, Waltham, MA, USA) was used, and the brightfield channel was used for H460 cell images.
Figure 3 Antibacterial activities of 2-(amino)quinazolin-4(3H)-one derivatives in the H460 infection model. H460 cells were infected with S. aureus USA300 JE strain expressing GFP, followed by treatment with serial dilutions of 2-(amino)quinazolin-4(3H)-one derivatives. After incubation at 37 °C for 24 h with 5% CO2, fluorescence signals of the bacteria were detected at 488 nm/510 nm using a multilabel plate reader.

[5] = Staphylococcus aureus, ATCC25923, methicillin-sensitive strain, OD600 after 18–24 h, read-out: ATCC25923 MIC50
[6] = methicillin-sensitive strain, OD600 after 18–24 h, read-out: ATCC25923 MIC50
[7] = Staphylococcus aureus, USA300, USA300 JE2, methicillin-resistant, OD600 after 18–24 h, read-out: USA300 MIC50
[8] = USA300 JE2, methicillin-resistant, OD600 after 18–24 h, read-out: USA300 MIC50

SMILES	MIC50 [1, 5] [µM]	MIC50 [1, 6] [µM]	MIC50 [2, 7] [µM]	MIC50 [2, 8] [µM]	IC50 ([3]; HepG2 cells, 24 h, resazurin) [µM]	MIC50 [4] [µM]	fold better antibacterial activity against JE2 compared to compound 1 [2]	MIC50 ([1]; Staphylococcus aureus, ATCC25923, read-out: ATCC25923 MIC50) [µM]	MIC50 ([2]; Staphylococcus aureus, USA300, read-out: USA300 MIC50) [µM]	IC50 [3] [µM]	H460 Assay MIC50 (MIC50 ex vivo) ([4]; H460 cells infected with USA300 JE2-GFP, 24 h, GFP fluorescence) [µM]
O=c1[nH]c(Nc2ccc(Cl)cc2)nc2cc(Cl)ccc12 [6v, 7-Chloro-2-((4-chlorophenyl)amino)quinazolin-4(3H)-one]	2.1 to 4.5 (≈ 0.643 to 1.38 µg/mL)	2.7 (≈ 0.827 µg/mL)	0.9 to 3 (≈ 0.276 to 0.918 µg/mL)	1.7 (≈ 0.52 µg/mL)	25.5	23.9 (≈ 7.32 µg/mL)	–	–	–	–	–
CC[C@H]1OC(=O)[C@H](C)[C@@H](O[C@H]2C[C@@](C)(OC)[C@@H](O)[C@H](C)O2)[C@H](C)[C@@H](O[C@@H]2O[C@H](C)C[C@H](N(C)C)[C@H]2O)[C@](C)(O)C[C@@H](C)C(=O)[C@H](C)[C@@H](O)[C@]1(C)O [Erythromycin, reference compound]	0.7 (≈ 0.514 µg/mL)	–	0.49 (≈ 0.36 µg/mL)	–	> 100	0.1 (≈ 0.0734 µg/mL)	–	–	–	–	–
O=c1[nH]c(Nc2cc(Cl)cc(Cl)c2)nc2cc([N+](=O)[O-])ccc12 [6e, 2-((3,5-Dichlorophenyl)amino)-7-nitroquinazolin-4(3H)-one]	3 to 6 (≈ 1.05 to 2.11 µg/mL)	3.0 (≈ 1.05 µg/mL)	–	–	9.3	68.8 (≈ 24.2 µg/mL)	at least 6.5 fold	–	–	–	–
O=c1[nH]c(Nc2cc(Cl)cc(Cl)c2)nc2cc(F)c(F)cc12 [6g, 2-((3,5-Dichlorophenyl)amino)-6,7-difluoroquinazolin-4(3H)-one]	3 to 6 (≈ 1.03 to 2.05 µg/mL)	4.0 (≈ 1.37 µg/mL)	–	–	12.9	25.3 (≈ 8.66 µg/mL)	at least 6.5 fold	–	–	–	–
O=c1[nH]c(Nc2cc(Cl)cc(Cl)c2)nc2ccccc12 [6j, 2-((3,5-Dichlorophenyl)amino)quinazolin-4(3H)-one]	3 to 6 (≈ 0.918 to 1.84 µg/mL)	5.9 (≈ 1.81 µg/mL)	–	–	29.7	35.4 (≈ 10.8 µg/mL)	at least 6.5 fold	–	–	–	–
O=c1[nH]c(Nc2cc(Cl)cc(Cl)c2)nc2cc(Cl)c(Cl)cc12 [6h, 6,7-Dichloro-2-((3,5-dichlorophenyl)amino)quinazolin-4(3H)-one]	3 to 6 (≈ 1.13 to 2.25 µg/mL)	3.7 (≈ 1.39 µg/mL)	0.3 to 1.9 (≈ 0.113 to 0.713 µg/mL)	0.3 (≈ 0.113 µg/mL)	10.2	4.1 (≈ 1.54 µg/mL)	at least 6.5 fold	–	–	–	–
O=c1[nH]c(Nc2cc(Cl)cc(Cl)c2)nc2c(Br)cc(Br)cc12 [6f, 6,8-Dibromo-2-((3,5-dichlorophenyl)amino)quinazolin-4(3H)-one]	3 to 6 (≈ 1.39 to 2.78 µg/mL)	6.0 (≈ 2.78 µg/mL)	–	–	9.6	8.7 (≈ 4.04 µg/mL)	at least 6.5 fold	–	–	–	–
O=c1[nH]c(Nc2cccc(Cl)c2)nc2cc(Cl)ccc12 [6u, 7-Chloro-2-((3-chlorophenyl)amino)quinazolin-4(3H)-one]	2.1 to 4.5 (≈ 0.643 to 1.38 µg/mL)	3.5 (≈ 1.07 µg/mL)	0.9 to 3 (≈ 0.276 to 0.918 µg/mL)	1.1 (≈ 0.337 µg/mL)	4.3	19.2 (≈ 5.88 µg/mL)	–	–	–	–	–
O=c1[nH]c(Nc2cc(Cl)cc(Cl)c2)nc2cc(C(F)(F)F)ccc12 [6k, 2-((3,5-Dichlorophenyl)amino)-7-(trifluoromethyl)quinazolin-4(3H)-one]	1.3 (≈ 0.486 µg/mL)	–	0.3 (≈ 0.112 µg/mL)	–	10.5	6 (≈ 2.24 µg/mL)	–	–	–	–	–
CN[C@H](CC(C)C)C(=O)N[C@H]1C(=O)N[C@@H](CC(N)=O)C(=O)N[C@H]2C(=O)N[C@H]3C(=O)N[C@H](C(=O)N[C@H](C(=O)O)c4cc(O)cc(O)c4-c4cc3ccc4O)[C@H](O)c3ccc(c(Cl)c3)Oc3cc2cc(c3O[C@@H]2O[C@H](CO)[C@@H](O)[C@H](O)[C@H]2O[C@H]2C[C@](C)(N)[C@H](O)[C@H](C)O2)Oc2ccc(cc2Cl)[C@H]1O [Vancomycin, reference compound]	–	–	–	–	–	7.7 (≈ 11.2 µg/mL)	–	0.3 (≈ 0.435 µg/mL)	0.35 (≈ 0.507 µg/mL)	> 100	7.7
O=c1[nH]c(Nc2cc(Cl)cc(Cl)c2)nc2c(Cl)cc(Cl)cc12 [6i, 6,8-Dichloro-2-((3,5-dichlorophenyl)amino)quinazolin-4(3H)-one]	3 to 6 (≈ 1.13 to 2.25 µg/mL)	5.7 (≈ 2.14 µg/mL)	–	–	39.5	26.5 (≈ 9.94 µg/mL)	at least 6.5 fold	–	–	–	–
